Laboratory results: patent US20160243051A1, “MONO DISPERSE POLYMER NANOPARTICLES, FUNCTIONALIZED NANOPARTICLES AND CONTROLLED FORMATION METHOD” (THE CURATORS OF THE UNIVERSITY OF MISSOURI, priority 2013, published 2016)

Experiment: Near infrared whole body florescent imaging, IVIS in-vivo imaging system
Settings: nude mice, 100 μl injected once, 0.15 mg/ml ICG
Protocol: Near Infrared based florescent imaging was carried out in nude mice through IVIS in-vivo imaging system. Briefly, 100 μl of samples of free ICG solution (0.15 mg/ml), PMMA-COOH (0.15 mg/ml of ICG present in nanoparticles) and Pegylated nanoparticles containing ICG (0.15 mg/ml) were injected once and their florescence were recorded at various time points as shown in FIGS. 8A-8C. […] There are three possible reasons for florescence quenching; namely, (i) degradation of free ICG physiological conditions, or (ii) rapid clearance of free ICG from the body, or (iii) a combination of both processes.

## CC1(C)C(/C=C/C=C/C=C/C=C2\N(CCCCS(=O)(=O)O)c3ccc4ccccc4c3C2(C)C)=[N+](CCCCS(=O)(=O)[O-])c2ccc3ccccc3c21 [free ICG, indocyanine green]
  time within which florescence diminished: ≤ 6 h
  time within which florescence was completely reduced to almost zero: ≤ 24 h
